In publication PMC12040169 (PLOS Biology, 2025):

Test: in vitro
Conditions: human, hela cells, % viability

Row | SMILES | viability at 28.5 h, 10 µM
1 | CCN1CCN(c2ccc3nnc(C(C)C)n3n2)CC1 [CBK287974] | 88.3%
2 | O=c1c2cc(OCc3ccc(Cl)cc3)ccc2nc2n1CCC2 [CBK287977] | 91.6%
3 | Cc1ccc(-c2ccnc3[nH]c(=O)[nH]c(=O)c23)cc1 [CBK287978] | 89.7%
4 | O=C1CC(C(=O)Nc2ccccc2)n2cnnc2N1 (stereo not shown) [CBK287980] | 112%
5 | COc1cccc(C2SCC(=O)Nc3[nH]nc(C)c32)c1 (stereo not shown) [CBK287981] | 78.2%
6 | O=C(Nc1ccncc1)c1snnc1-c1ccccc1 [CBK287982] | 81.4%
7 | COc1ccc(OC)c(-n2cnc3c2NC(=O)CC3c2ccccc2Cl)c1 (stereo not shown) [CBK287983] | 91.1%
8 | COc1cc2ncnc(NCc3ccccc3)c2cc1OC [CBK287984] | 79.7%
9 | O=C(Cn1nc(-c2ccco2)ccc1=O)Nc1ccccn1 [CBK287985] | 87.4%
10 | COc1cccc(CC(=O)Nc2ccc3c(C)cc(C)nc3n2)c1 [CBK287992] | 74.1%
11 | COc1ccc(CC(=O)NCC(=O)N2CCC3(CC2)NCCc2nc[nH]c23)cc1 [CBK287997] | 110%
12 | COc1ccc(CCN2C(=O)N[C@@H](CCC(=O)NC3CC3)C2=O)cc1 [CBK288001] | 109%
13 | O=C1Nc2ccccc2C12CC(c1ccccc1Cl)=NN2 (stereo not shown) [CBK288004] | 111%
14 | Cc1ccc(-n2c3nc(=O)n(C)c(=O)c-3cc3ccccc32)cc1 [CBK288007] | 103%
15 | Cc1cc(C)cc(Cn2cc(NCc3ccccc3)c(=O)[nH]c2=O)c1 [CBK288009] | 106%
16 | O=C(O)c1ccc(-c2cnc3ccccc3n2)cc1 [CBK288010] | 106%
17 | CCCCn1nc2[nH]c(=O)cc(C(F)F)c2c1C [CBK288011] | 93.8%
18 | COc1cccc(NC(=O)CCn2ncc(Cl)c2C)c1 [CBK288012] | 94.9%
19 | O=c1cc(C(F)F)c2cn(C3CCCC3)nc2[nH]1 [CBK288016] | 91.8%
20 | Cn1ncc2c(C(=O)O)cc(-c3ccccc3)nc21 [CBK288024] | 88.9%
21 | Cc1ccccc1C1NC(=O)NC2=C1C(=O)N(C)C2 (stereo not shown) [CBK288026] | 96.8%
22 | CCn1c(SCC(=O)N2CCCC2)nc2cc(C)[nH]c2c1=O [CBK288027] | 99.9%
23 | COc1cccc(Nc2[nH]nnc2C(=O)Nc2cccc(C)c2C)c1 [CBK288028] | 102%
24 | Cc1ccccc1N1CCN(C(=O)c2nn[nH]c2Nc2ccccc2F)CC1 [CBK288032] | 101%

Row | SMILES | viability at 28.5 h, 10 µM
25 | O=c1[nH]c(CNc2ccccc2)nc2ccccc12 [CBK288038] | 103%
26 | Cn1c(SCc2ccccc2)nc2ccsc2c1=O [CBK288039] | 82.1%
27 | O=C1NC2(CCCC2)N=C1c1ccc(Cl)cc1Cl [CBK288042] | 82.4%
28 | O=c1[nH]c2c(-c3ccccc3)nnn2c2ccccc12 [CBK288047] | 98.3%
29 | O=c1[nH]ccn2nc(-c3ccc4c(c3)OCO4)cc12 [CBK288048] | 87.7%
30 | N#Cc1cnc2ccccc2c1N1CCC(C(=O)O)CC1 [CBK288050] | 90%
31 | COc1ccc2ncc3c(-c4ccccc4)n[nH]c3c2c1 [CBK288052] | 93.3%
32 | COc1cccc(CNC(=O)c2cn[nH]c2-c2cccc(C)c2)c1 [CBK288056] | 102%
33 | COc1ccc(CNC(=O)c2cn[nH]c2-c2ccccc2)c(OC)c1 [CBK288057] | 100%
34 | COc1ccc(C(C)NC(=O)c2cc(-c3ccc(F)cc3)[nH]n2)cc1 (stereo not shown) [CBK288060] | 87%
35 | Cc1ccc(N2CC(c3nnc(N)o3)CC2=O)cc1 (stereo not shown) [CBK288061] | 93.8%
36 | O=C1CC(c2ccccc2)n2nc(C(F)(F)F)nc2N1 (stereo not shown) [CBK288063] | 114%
37 | Cc1ccc(C2CC(c3cccnc3)Nc3nnnn32)cc1 (stereo not shown) [CBK288067] | 97.9%
38 | O=c1[nH]c(Nc2ccccc2)nc2nccc(-c3ccccc3)c12 [CBK288072] | 88.8%
39 | O=C(c1nc2ncccn2n1)N1CCc2ccccc2C1 [CBK288079] | 88%
40 | CC1CCc2onc(C(=O)Nc3ccncc3)c2C1 (stereo not shown) [CBK288080] | 110%
41 | Cc1nc2ccccc2n1CC(O)COc1ccccc1 (stereo not shown) [CBK288084] | 106%
42 | COc1cc(CNc2nnn[nH]2)cc(Cl)c1OC [CBK288087] | 97.8%
43 | CCCn1nnc(NCc2ccc(Cl)cc2)n1 [CBK288089] | 97.2%
44 | CCC(C)NCc1cccc(Oc2ncccn2)c1 (stereo not shown) [CBK288090] | 106%
45 | Cc1nc2ccccc2c(=O)n1Cc1cccnc1 [CBK288092] | 94.3%
46 | CC(Nc1ncnc2c1cnn2C)c1ccccc1 (stereo not shown) [CBK288093] | 106%
47 | Fc1ccc(C2C=C(c3ccc(F)cc3F)Nc3ncnn32)cc1 (stereo not shown) [CBK288095] | 99.7%
48 | CC(C)c1ccc(-n2ncc3c(=O)[nH]cnc32)cc1 [CBK288096] | 70.7%

Row | SMILES | viability at 28.5 h, 10 µM
49 | Cc1ccc(Nc2nc(N(C)C)nc3[nH]ncc23)cc1 [CBK288098] | 108%
50 | CSc1ccccc1Nc1ncnc2n[nH]cc12 [CBK288099] | 114%
51 | Cc1ccc(-n2cc(-c3ccccc3)[nH]c2=O)cc1 [CBK288103] | 101%
52 | CCOc1ccc(-c2nc(N)ncc2Oc2ccc(OC)cc2)c(O)c1 [CBK288105] | 101%
53 | CCOc1ccc(-c2n[nH]c(C)c2-c2ccc(OC)c(OC)c2)c(O)c1 [CBK288106] | 102%
54 | CN(C(=O)c1ccc(-n2nncc2-c2ccccc2)cc1)c1ccccc1 [CBK288107] | 108%
55 | COc1cccc(-c2cc(C(=O)N3CCC(C)CC3)n[nH]2)c1 [CBK288109] | 94.3%
56 | CCOc1ccc(-c2ncncc2-c2ccccc2)c(O)c1 [CBK288111] | 86.4%
57 | COc1ccc(-c2cn[nH]c2-c2ccc(OCCN3CCOCC3)cc2O)cc1 [CBK288112] | 97%
58 | COc1ccc(-c2cc(C(=O)Nc3c(C)cccc3C)n[nH]2)c(OC)c1 [CBK288114] | 107%
59 | Nc1nn2c(-c3cccc(Cl)c3)nnc2s1 [CBK288122] | 73.2%
60 | O=c1ccnc(SCc2cccc(Cl)c2)[nH]1 [CBK288123] | 100%
61 | O=C1Nc2cc(C(F)(F)F)ccc2N2CCCC12 (stereo not shown) [CBK288125] | 99.7%
62 | CNC(=O)c1cnc2sc3c(n2c1=O)CCCC3 [CBK288126] | 102%
63 | CCOc1cccc(CNc2nn[nH]n2)c1OCc1ccc(C)cc1 [CBK288127] | 110%
64 | CCCn1nnnc1NCc1cccc(Cl)c1 [CBK288130] | 98.7%
65 | C=CCn1nnc(NC(=O)COc2ccccc2)n1 [CBK288131] | 108%
66 | COc1ccccc1CNC(=O)c1ccc(=O)[nH]c1 [CBK288133] | 106%
67 | Cc1cc(C)nc(-n2ncc(C#N)c2NC(=O)c2ccccc2)n1 [CBK288135] | 111%
68 | Cn1c(=O)[nH]c(=O)c2c(-c3ccccc3)ccnc21 [CBK288136] | 72%
69 | Cc1ccc(-c2nc3ccccc3c(=O)o2)cc1C [CBK288137] | 97.4%
70 | Cc1ccccc1N1CC(C(=O)Nc2cccnc2)CC1=O (stereo not shown) [CBK288138] | 88.3%
